# From US7138140B2, “Suplatast tosilate crystals” (Taiho Pharmaceutical Co., Ltd., priority 2001, dated 2006)
# Assays:
# Format in all cases: physicochemical
# [1] = Measurement of an optically active substance ratio (chiral stationary phase column); details: p-toluenesulfonate; for Optically active substance ratio ((+)/(−)): crystals, Chiralcel OD-H column; for Optically active substance ratio of the suplatast tosilate in the mother liquor: mother liquor after crystallization
# Experimental: [Test 1] Measurement of an Optically Active Substance Ratio
# The optically active substance ratio of each of the suplatast tosilate crystals of the present invention obtained in Examples 1 to 3, and the suplatast tosilate first crystals obtained in Comparative Examples 1 to 3 was measured using a chiral stationary phase column (“Chiralcel OD-H”, 4.6 mm×25 cm, product of Daicel Chemical Industries) with n-hexane ethanol-trifluoroacetic acid-diethylamine (750:250:5:1) as a mobile phase.
# The optically active substance ratio of the suplatast tosilate in the mother liquor in each of Examples and Comparative Examples was measured as described above. The ratio in Example 1 to 6 was from 0.99 to 1.01, while it was 0.57 in Comparative Example 1, 0.87 in Comparative Example 2, and 0.42 in Comparative Example 3. Accordingly, the invention crystal can be recovered again from the mother liquor, while the first crystal cannot be recovered from the mother liquor. Such a phenomenon owes to optical enrichment phenomenon typically observed upon formation of the first crystal.
# [2] = Heat Stability Test (60° C., 3 months, glass air-tight container); details: for Decomposition product (wt. %) formed, Lot 1: Lot 1, p-toluenesulfonate
# Experimental: [Test 4] Heat Stability Test
# The invention crystals of suplatast tosilate obtained in accordance with the process of Example 1 and commercially available suplatast tosilate first crystals, each 3.6 g, were stored at 60° C. for 3 months in a glass air-tight container and the formation amount and powder X-ray diffraction of a decomposition product ((±)-4-(3-ethoxy-2-hydroxypropoxy) aniline derivative) were measured to investigate heat storage stability.
# [3] = Hygroscopicity Test 1 (storage at 25° C., 75% RH, time-dependent weight change); details: relative humidity 75%, FIG. 4
# Experimental: FIG. 4 is a graph illustrating a water content increase, at 25° C. and relative humidity of 75%, of the invention crystal of suplatast tosilate (Example 1) suplatast tosilate first crystal (commercially available product) and suplatast tosilate second crystal (Comparative Example 4).
# [Test 2] Hygroscopicity Test 1
# In a dessicator (adjusted to 75% RH) having a saturated aqueous solution of sodium chloride charged therein, 1.0 g of each of the suplatast tosilate crystals of the invention obtained in Example 1, commercially available suplatast tosilate first crystals and the suplatast tosilate second crystals obtained in Comparative Example 4 were stored at 25° C. and a time-dependent weight change was measured.
# [4] = Hygroscopicity Test 2 (storage at 40° C., relative humidity 50%, 14 days); details: for Change in appearance on storage: p-toluenesulfonate
# Experimental: [Test 3] Hygroscopicity Test 2
# Each of the suplatast tosilate crystals of the invention obtained in Example 1, and the second crystals obtained in accordance with the process of Comparative Example 4 (each, 0.5 g) were stored at 40° C. and relative humidity of 50% for 14 days, followed by observation of their appearance, powder X-ray diffraction and differential scanning calorimetry (DSC) in order to investigate storage stability.
# [5] = 2 months, Lot 2, p-toluenesulfonate
# [6] = 2 months, Lot 3, p-toluenesulfonate
# [7] = 3 months, Lot 2, p-toluenesulfonate
# [8] = 3 months, Lot 3, p-toluenesulfonate
compound,measurement,setting,value
"CCOCC(O)COc1ccc(NC(=O)CC[S+](C)C)cc1.Cc1ccc(S(=O)(=O)[O-])cc1 (racemic) [Comparative Example 1, (±)-[2-[4-(3-ethoxy-2-hydroxypropoxy)phenylcarbamoyl]ethyl] dimethylsulfonium p-toluenesulfonate]",Optically active substance ratio ((+)/(−)),[1],1.09
same,Optically active substance ratio of the suplatast tosilate in the mother liquor,[1],0.57
"CCOCC(O)COc1ccc(NC(=O)CC[S+](C)C)cc1.Cc1ccc(S(=O)(=O)[O-])cc1 (racemic) [Comparative Example 2, (±)-[2-[4-(3-ethoxy-2-hydroxypropoxy)phenylcarbamoyl]ethyl] dimethylsulfonium p-toluenesulfonate]",Optically active substance ratio ((+)/(−)),[1],0.97
same,Optically active substance ratio of the suplatast tosilate in the mother liquor,[1],0.87
"CCOCC(O)COc1ccc(NC(=O)CC[S+](C)C)cc1.Cc1ccc(S(=O)(=O)[O-])cc1 (racemic) [Comparative Example 3, (±)-[2-[4-(3-ethoxy-2-hydroxypropoxy)phenylcarbamoyl]ethyl] dimethylsulfonium p-toluenesulfonate]",Optically active substance ratio ((+)/(−)),[1],0.94
same,Optically active substance ratio of the suplatast tosilate in the mother liquor,[1],0.42
"CCOCC(O)COc1ccc(NC(=O)CC[S+](C)C)cc1.Cc1ccc(S(=O)(=O)[O-])cc1 (racemic) [Example 1, (±)-[2-[4-(3-ethoxy-2-hydroxypropoxy)phenylcarbamoyl]ethyl] dimethylsulfonium p-toluenesulfonate]",Optically active substance ratio ((+)/(−)),[1],1.00
"CCOCC(O)COc1ccc(NC(=O)CC[S+](C)C)cc1.Cc1ccc(S(=O)(=O)[O-])cc1 (racemic) [Example 2, (±)-[2-[4-(3-ethoxy-2-hydroxypropoxy)phenylcarbamoyl]ethyl] dimethylsulfonium p-toluenesulfonate]",Optically active substance ratio ((+)/(−)),[1],1.00
"CCOCC(O)COc1ccc(NC(=O)CC[S+](C)C)cc1.Cc1ccc(S(=O)(=O)[O-])cc1 (racemic) [Example 3, (±)-[2-[4-(3-ethoxy-2-hydroxypropoxy)phenylcarbamoyl]ethyl] dimethylsulfonium p-toluenesulfonate]",Optically active substance ratio ((+)/(−)),[1],1.00
"CCOCC(O)COc1ccc(NC(=O)CC[S+](C)C)cc1.Cc1ccc(S(=O)(=O)[O-])cc1 (racemic) [Example 6, (±)-[2-[4-(3-ethoxy-2-hydroxypropoxy)phenylcarbamoyl]ethyl] dimethylsulfonium p-toluenesulfonate]",Optically active substance ratio ((+)/(−)),[1],around 1.00
"CCOCC(O)COc1ccc(NC(=O)CC[S+](C)C)cc1.Cc1ccc(S(=O)(=O)[O-])cc1 (racemic) [First crystal, (±)-[2-[4-(3-ethoxy-2-hydroxypropoxy)phenylcarbamoyl]ethyl] dimethylsulfonium p-toluenesulfonate]","Decomposition product (wt. %) formed, Lot 1",[2]; 1 month,0.1 wt. %
same,"Decomposition product (wt. %) formed, Lot 2","[2]; 1 month, Lot 2",0.0 wt. %
same,"Decomposition product (wt. %) formed, Lot 3","[2]; 1 month, Lot 3",0.0 wt. %
same,"Decomposition product (wt. %) formed, Lot 1",[2]; 2 months,1.1 wt. %
same,"Decomposition product (wt. %) formed, Lot 2",[2]; [5],0.7 wt. %
same,"Decomposition product (wt. %) formed, Lot 3",[2]; [6],0.5 wt. %
same,Decomposition product formed after 3-month storage (over the lots),[2]; 3 months,about 1.7 wt. %
same,"Decomposition product (wt. %) formed, Lot 1",[2]; 3 months,2.1 wt. %
same,"Decomposition product (wt. %) formed, Lot 2",[2]; [7],1.5 wt. %
same,"Decomposition product (wt. %) formed, Lot 3",[2]; [8],1.4 wt. %
"CCOCC(O)COc1ccc(NC(=O)CC[S+](C)C)cc1.Cc1ccc(S(=O)(=O)[O-])cc1 (racemic) [Invention crystal, (±)-[2-[4-(3-ethoxy-2-hydroxypropoxy)phenylcarbamoyl]ethyl] dimethylsulfonium p-toluenesulfonate]","Decomposition product (wt. %) formed, Lot 1",[2]; 1 month,0.0 wt. %
same,"Decomposition product (wt. %) formed, Lot 2","[2]; 1 month, Lot 2",0.0 wt. %
same,"Decomposition product (wt. %) formed, Lot 3","[2]; 1 month, Lot 3",0.0 wt. %
same,"Decomposition product (wt. %) formed, Lot 1",[2]; 2 months,0.0 wt. %
same,"Decomposition product (wt. %) formed, Lot 2",[2]; [5],0.0 wt. %
same,"Decomposition product (wt. %) formed, Lot 3",[2]; [6],0.0 wt. %
same,Decomposition product after 3 months (in words),[2]; 3 months,no decomposition product appeared
same,"Decomposition product (wt. %) formed, Lot 1",[2]; 3 months,0.0 wt. %
same,"Decomposition product (wt. %) formed, Lot 2",[2]; [7],0.0 wt. %
same,"Decomposition product (wt. %) formed, Lot 3",[2]; [8],0.0 wt. %
same,Hygroscopicity (water content increase),[3],lower hygroscopicity than each of the first crystal and second crystal
same,Change in powder X-ray diffraction peaks and DSC on storage,[4],almost free from a change in powder X-ray diffraction peaks and in DSC
same,Change in appearance on storage,[4],almost free from a change in appearance
"CCOCC(O)COc1ccc(NC(=O)CC[S+](C)C)cc1.Cc1ccc(S(=O)(=O)[O-])cc1 (racemic) [second crystal, (±)-[2-[4-(3-ethoxy-2-hydroxypropoxy)phenylcarbamoyl]ethyl] dimethylsulfonium p-toluenesulfonate]",Change in appearance on storage,[4],showed deliquescence after storage for one week
